Measurements taken from US10023565B2, “N,N′ substituted piperidinamine compounds, and preparation method and usage thereof” (Institute of Pharmacology and Toxicology Academy of …, priority 2013, dated 2018).
Values belong to the compound of their own block, whether it stands above or below them.

How the values were obtained:
[1] = system: BT/Lap^R1.0; experiment: Antitumor bioactivity evaluation, breast cancer cells (ATPlite); type: cell-based, human; details: Homo sapiens; for inhibition at 5 µM: test sample 5 μM, 72 hours, read-out: Inhibitory Rate % BT/Lap^R1.0
Summary of the method: (§1)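 Single-concentration screen: 5 μM compound, or 5 μM compound plus 1 μM lapatinib, on adhered cells (5000/well) for 72 h. Viability by ATPlite luminescence relative to solvent control.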

[2] = system: HepG2; experiment: Extended test against tumor cell lines (ATPlite); type: cell-based; details: HepG2 (liver cancer), 72 hours
Description: (§2) The compounds of Examples 36/37/40/47/49 were used to carry out extended test against tumor cell lines, wherein 12 kinds of cells were selected, including liver cancer cells, gastric cancer cells, pancreatic cancer cells, colorectal cancer cells, lung cancer cells and normal cells, which were shown in Table 12:
(§3) A 100 mm culture dish with overgrown adherent cells was digested with 1 ml 0.25% trypsin (GIBCO) at 37° C. for 5 min, and the reaction was terminated with 2 ml culture medium (containing 10% FBS, GIBCO). The cells were scattered and collected, after counting, diluted to 1×10^5 cells/ml, and seeded into a 96-well plate at 50 μl/well, 5000 cells/well, excluding the peripheral circle of wells in which no cell was added, but PBS was added, 54 wells in total, and then incubated at 37° C. for 24 hours for adhering.
(§4) The test sample was diluted to final concentration of 4, 1, 0.25, 0.063, 0.016 μM, culture medium was filled in control well, 3 parellel wells were set for each concentration, 50 μl each well, followed by incubation at 37° C. for 72 hours.
(§5) 3) Test after incubation at 37° C. for 72 hours: 50 μL of ATPlite kitsubstrate solution was added in each well, and vibrated for 3 min, followed by placing aside in darkness for 10 min, and then supernatant 100 μl/well was taken and placed on a luminescence test plate; the luminescence test plate that has been fully incubated was placed in a luminescence test instrument, to read luminescence value.
(§6) Cell survival rate (%)=Experimental group RLU/control group RLU×100%. The experimental data were subjected to data analysis and processing by utilizing GraphPad software.

[3] = system: A549; experiment: Extended test against tumor cell lines (ATPlite); type: cell-based; details: A549 (lung cancer), 72 hours
Description: as §2, §3, §4, §5, §6

[4] = system: N87; experiment: Extended test against tumor cell lines (ATPlite); type: cell-based; details: N87 (gastric cancer), 72 hours
Description: as §2, §3, §4, §5, §6

[5] = system: BGC823; experiment: Extended test against tumor cell lines (ATPlite); type: cell-based; details: BGC823 (gastric cancer), 72 hours
Description: as §2, §3, §4, §5, §6

[6] = system: AsPC-1; experiment: Extended test against tumor cell lines (ATPlite); type: cell-based; details: AsPC-1 (pancreatic cancer), 72 hours
Description: as §2, §3, §4, §5, §6

[7] = system: H460; experiment: Extended test against tumor cell lines (ATPlite); type: cell-based; details: H460 (lung cancer), 72 hours
Description: as §2, §3, §4, §5, §6

[8] = system: HT-29; experiment: Extended test against tumor cell lines (ATPlite); type: cell-based; details: HT-29 (colorectal cancer), 72 hours
Description: as §2, §3, §4, §5, §6

[9] = system: SK-BR3; experiment: Antitumor bioactivity evaluation, breast cancer cells (ATPlite); type: cell-based; details: Homo sapiens, SK-BR-3; test sample 5 μM, 72 hours; read-out: Inhibitory Rate % SK-BR3
Summary of the method: as §1

[10] = system: SK/Lap^R1.0; experiment: as above; type: cell-based; details: Homo sapiens; test sample 5 μM, 72 hours; read-out: Inhibitory Rate % SKLap^R1.0
Summary of the method: as §1

[11] = system: BT474; experiment: as above; type: cell-based; details: Homo sapiens, BT-474; for inhibition at 5 µM: test sample 5 μM, 72 hours, read-out: Inhibitory Rate % BT474
Summary of the method: as §1

[12] = system: MDA-MB-361; experiment: as above; type: cell-based; details: Homo sapiens, test sample 5 μM, 72 hours, read-out: Inhibitory Rate % MDA-MB-361
Summary of the method: as §1

[13] = system: MDA-MB-453; experiment: as above; type: cell-based; details: Homo sapiens, test sample 5 μM, 72 hours, read-out: Inhibitory Rate % MDA-MB-453
Summary of the method: as §1

[14] = system: six human breast cancer cell strains; experiment: Antitumor activity evaluation, statements on the whole panel; type: cell-based; details: compound alone
Description: In antitumor activity evaluation, six human breast cancer cell strains are selected, including BT474, SK-BR3 which are human breast cancer cell strains sensitive to lapatinib, BT/Lap^R1.0, SK/Lap^R1.0 which are human breast cancer cell strains with secondary resistance to lapatinib, MDA-MB-361, MDA-MB-453 which are human breast cancer cell strains with natural resistance tolapatinib.
Antitumor bioactivity evaluation of the compounds of Examples according to the method described below
as §3, with “Cells plating: a” for “A”, “60” for “54”
Addition of the compound and lapatinib: the test sample was diluted to a final concentration of 5 μM, and the culture medium with the corresponding compound solvent concentration was filled in the control well, the compound solvent concentration was kept consistent in each well, 5 parellel wells were set for each concentration, 25 μl each well, 25 μl culture medium (in combined group, 25 μl lapatinib was added till a final concentration of 1 μM) supplemented, followed by incubation at 37° C. for 72 hours.
as §5, with “Test” for “3) Test”, “ATPlite kit substrate” for “ATPlite kitsubstrate”, “on aluminescence” for “on a luminescence”
1. Cell survival rate (%)=Experimental group RLU/control group RLU×100%. The experimental data were subjected to data analysis and processing by utilizing GraphPad software.

IC50 [1]: 700 nM
IC50 [11]: 780 nM
Structure (SMILES): CSc1nccc(N2CCC(N(C)Cc3c(Cl)cccc3Cl)CC2)n1 [Example 49, N-methyl-N-(2,6-dichlorobenzyl)-N-[1-(2-methylthiopyrimidin-4-yl)piperidin-4-yl]amine]
inhibition at 5 µM [1]: 58.8%
Survival rate ([2]; 0.016 μM): 101.8%
Survival rate ([2]; 0.063 μM): 96.2%
Survival rate ([2]; 0.25 μM): 82.1%
Survival rate ([2]; 1 μM): 9.5%
Survival rate ([2]; 4 μM): 2.4%
Survival rate ([3]; 0.016 μM): 99.9%
Survival rate ([3]; 0.063 μM): 95.1%
Survival rate ([3]; 0.25 μM): 95.2%
Survival rate ([3]; 1 μM): 60.5%
Survival rate ([3]; 4 μM): 40.1%
Survival rate ([4]; 0.016 μM): 89.5%
Survival rate ([4]; 0.063 μM): 74.1%
Survival rate ([4]; 0.25 μM): 65.6%
Survival rate ([4]; 1 μM): 42.8%
Survival rate ([4]; 4 μM): 26%
Survival rate ([5]; 0.016 μM): 102.8%
Survival rate ([5]; 0.063 μM): 102.4%
Survival rate ([5]; 0.25 μM): 95.1%
Survival rate ([5]; 1 μM): 44%
Survival rate ([5]; 4 μM): 17.3%
Survival rate ([6]; 0.016 μM): 99.1%
Survival rate ([6]; 0.063 μM): 97.5%
Survival rate ([6]; 0.25 μM): 93.8%
Survival rate ([6]; 1 μM): 64.4%
Survival rate ([6]; 4 μM): 44.3%
Survival rate ([7]; 0.016 μM): 98.4%
Survival rate ([7]; 0.063 μM): 98.3%
Survival rate ([7]; 0.25 μM): 94.2%
Survival rate ([7]; 1 μM): 47.9%
Survival rate ([7]; 4 μM): 19.3%
Survival rate ([8]; 0.016 μM): 96.3%
Survival rate ([8]; 0.063 μM): 91%
Survival rate ([8]; 0.25 μM): 84.7%
Survival rate ([8]; 1 μM): 63.9%
Survival rate ([8]; 4 μM): 25.1%
inhibition at 5 µM [9]: 19.7%
inhibition at 5 µM [10]: 13.5%
inhibition at 5 µM [11]: 61.5%
inhibition at 5 µM [12]: 30.1%
inhibition at 5 µM [13]: 68.9%

IC50 [1]: 1680 nM
IC50 [11]: 1620 nM
Structure (SMILES): CSc1nccc(N2CCC(N(C)Cc3ccc(Cl)cc3Cl)CC2)n1 [Example 40, N-methyl-N-(2,4-dichlorobenzyl)-N-[1-(2-methylthiopyrimidin-4-yl)piperidin-4-yl]amine]
inhibition at 5 µM [1]: 68.1%
Survival rate ([2]; 0.016 μM): 94.7%
Survival rate ([2]; 0.063 μM): 94.8%
Survival rate ([2]; 0.25 μM): 86.4%
Survival rate ([2]; 1 μM): 55.3%
Survival rate ([2]; 4 μM): 4.5%
Survival rate ([3]; 0.016 μM): 97.1%
Survival rate ([3]; 0.063 μM): 95.9%
Survival rate ([3]; 0.25 μM): 95.3%
Survival rate ([3]; 1 μM): 81.2%
Survival rate ([3]; 4 μM): 38%
Survival rate ([4]; 0.016 μM): 97.9%
Survival rate ([4]; 0.063 μM): 92.7%
Survival rate ([4]; 0.25 μM): 89.7%
Survival rate ([4]; 1 μM): 71.5%
Survival rate ([4]; 4 μM): 36.3%
Survival rate ([5]; 0.016 μM): 98.3%
Survival rate ([5]; 0.063 μM): 103.1%
Survival rate ([5]; 0.25 μM): 91.3%
Survival rate ([5]; 1 μM): 73.7%
Survival rate ([5]; 4 μM): 21.1%
Survival rate ([6]; 0.016 μM): 97.8%
Survival rate ([6]; 0.063 μM): 96.1%
Survival rate ([6]; 0.25 μM): 93.1%
Survival rate ([6]; 1 μM): 83.3%
Survival rate ([6]; 4 μM): 51.2%
Survival rate ([7]; 0.016 μM): 98.7%
Survival rate ([7]; 0.063 μM): 98.7%
Survival rate ([7]; 0.25 μM): 93.7%
Survival rate ([7]; 1 μM): 75.9%
Survival rate ([7]; 4 μM): 26.3%
Survival rate ([8]; 0.016 μM): 100.6%
Survival rate ([8]; 0.063 μM): 105.4%
Survival rate ([8]; 0.25 μM): 102%
Survival rate ([8]; 1 μM): 89.2%
Survival rate ([8]; 4 μM): 41.2%
growth inhibition to the six human breast cancer cell strains [14]: relatively significant growth inhibition
inhibition at 5 µM [9]: 87.6%
inhibition at 5 µM [10]: 80.7%
inhibition at 5 µM [11]: 74.2%
inhibition at 5 µM [12]: 64.1%
inhibition at 5 µM [13]: 68.7%

IC50 [1]: 1700 nM
IC50 [11]: 1990 nM
Structure (SMILES): CSc1nccc(N2CCC(N(C)Cc3ccccc3Cl)CC2)n1 [Example 47, N-methyl-N-(2-chlorobenzyl)-N-[1-(2-methylthiopyrimidin-4-yl)piperidin-4-yl]amine]
inhibition at 5 µM [1]: 58.1%
Survival rate ([2]; 0.016 μM): 103.1%
Survival rate ([2]; 0.063 μM): 102.7%
Survival rate ([2]; 0.25 μM): 96%
Survival rate ([2]; 1 μM): 71.4%
Survival rate ([2]; 4 μM): 7.3%
Survival rate ([3]; 0.016 μM): 98.1%
Survival rate ([3]; 0.063 μM): 95.3%
Survival rate ([3]; 0.25 μM): 93%
Survival rate ([3]; 1 μM): 88.7%
Survival rate ([3]; 4 μM): 45.9%
Survival rate ([4]; 0.016 μM): 89.6%
Survival rate ([4]; 0.063 μM): 91.3%
Survival rate ([4]; 0.25 μM): 87.8%
Survival rate ([4]; 1 μM): 68.6%
Survival rate ([4]; 4 μM): 34.8%
Survival rate ([5]; 0.016 μM): 99.8%
Survival rate ([5]; 0.063 μM): 100.6%
Survival rate ([5]; 0.25 μM): 98.4%
Survival rate ([5]; 1 μM): 84.3%
Survival rate ([5]; 4 μM): 24.5%
Survival rate ([6]; 0.016 μM): 100.2%
Survival rate ([6]; 0.063 μM): 94.7%
Survival rate ([6]; 0.25 μM): 92.8%
Survival rate ([6]; 1 μM): 85.3%
Survival rate ([6]; 4 μM): 53.6%
Survival rate ([7]; 0.016 μM): 99%
Survival rate ([7]; 0.063 μM): 99.8%
Survival rate ([7]; 0.25 μM): 99.3%
Survival rate ([7]; 1 μM): 90.6%
Survival rate ([7]; 4 μM): 33.8%
Survival rate ([8]; 0.016 μM): 102.8%
Survival rate ([8]; 0.063 μM): 102.1%
Survival rate ([8]; 0.25 μM): 101.6%
Survival rate ([8]; 1 μM): 93.1%
Survival rate ([8]; 4 μM): 48.8%
growth inhibition to the six human breast cancer cell strains [14]: relatively significant growth inhibition
inhibition at 5 µM [9]: 31.7%
inhibition at 5 µM [10]: 16.6%
inhibition at 5 µM [11]: 60.4%
inhibition at 5 µM [12]: 27.7%
inhibition at 5 µM [13]: 66.2%
